In patent publication US8178506B2, “Oligomeric compounds and compositions for use in modulation of small non-coding RNAs” (Regulus Therapeutics Inc., priority 2003, dated 2012):
In the oligonucleotide strings, read from the 5' end, every base follows the letter of its sugar. An asterisk marks phosphorothioate; unmarked linkages are phosphodiester. Other units and linkages are bracketed, terminal groups are in braces. A string of capitals states the bases alone. e = 2'-O-(2-methoxyethyl) (MOE); [5mC] = 5-methylcytosine; d = 2'-deoxy (DNA)

Assays:
Type in all cases: cell-based, human
PEPCK-c = PEPCK-c mRNA expression in HepG2 cells; conditions: for PEPCKc mRNA expression: Experiment 2, insulin treated: HepG2 cells transfected with oligomeric compound, 1 nM insulin for four hours, UTC + 1 nM insulin = 100; for PEPCKc mRNA: four hours, UTC = 100
IGFBP-1 = IGFBP-1 mRNA expression in HepG2 cells; conditions: for IGFBP1 mRNA expression: Experiment 2, insulin treated: HepG2 cells transfected with oligomeric compound, 1 nM insulin for four hours, UTC + 1 nM insulin = 100; for IGFBP1 mRNA: four hours, UTC = 100
follistatin = assay: Follistatin mRNA expression in HepG2 cells; conditions: for Follistatin mRNA expression: Experiment 2, insulin treated: HepG2 cells transfected with oligomeric compound, 1 nM insulin for four hours, UTC + 1 nM insulin = 100; for Follistatin mRNA: four hours, UTC = 100
[1] = HepG2 cells, Experiment 1, basal (no insulin)
[2] = Experiment 1, basal (no insulin), HepG2, 100 nM oligomeric compound
[3] = Experiment 2, 1 nM insulin treated, HepG2, 100 nM oligomeric compound
[4] = Experiment 3, basal (no insulin), HepG2 cells, 48 hours post-transfection
[5] = Experiment 4, insulin-sensitization: HepG2 cells treated with 1 nM insulin for four hours, 48 h post-transfection, mRNA by real-time PCR

| Substance | PEPCKc mRNA (PEPCK-c; [1]) | IGFBP1 mRNA (IGFBP-1; [1]) | Follistatin mRNA (follistatin; [1]) | PEPCK-c (% UTC) (PEPCK-c; [2]) | PEPCK-c (% UTC) (PEPCK-c; [3]) | IGFBP-1 (% UTC) (IGFBP-1; [2]) | IGFBP-1 (% UTC) (IGFBP-1; [3]) | Follistatin (% UTC) (follistatin; [2]) | Follistatin (% UTC) (follistatin; [3]) | also measured |
| --- | --- | --- | --- | --- | --- | --- | --- | --- | --- | --- |
| 328125 (antisense eT*eA*eT*eG*eA*eA*eA*eT*eG*e[5mC]*e[5mC]*eA*eG*eA*eG*e[5mC]*eT*eG*e[5mC]*e[5mC]*eA) [compound 328125] |  |  |  |  |  |  |  |  |  | PEPCKc mRNA expression (PEPCK-c): 77; IGFBP1 mRNA expression (IGFBP-1): 216; Follistatin mRNA expression (follistatin): 107 |
| 327887 (antisense eG*e[5mC]*eG*eA*e[5mC]*e[5mC]*eA*eT*eG*eG*e[5mC]*eT*eG*eT*eA*eG*eA*e[5mC]*eT*eG*eT*eT*eA) [compound 327887] | 83 | 119 | 113 |  |  |  |  |  |  |  |
| 327889 (antisense eG*eT*eG*eG*eT*eA*eA*eT*e[5mC]*e[5mC]*e[5mC]*eT*eG*eG*e[5mC]*eA*eA*eT*eG*eT*eG*eA*eT) [compound 327889] |  |  |  | 137 % UTC | 202 % UTC | 56 % UTC | 73 % UTC | 56 % UTC | 72 % UTC |  |
| 328114 (antisense eA*eA*eT*e[5mC]*eT*e[5mC]*eA*eT*eT*eT*eT*e[5mC]*eA*eT*eA*e[5mC]*eT*eT*eG*e[5mC]*eA) [compound 328114] |  |  |  |  |  |  |  |  |  | PEPCKc mRNA expression (PEPCK-c): 41; IGFBP1 mRNA expression (IGFBP-1): 177; Follistatin mRNA expression (follistatin): 81 |
| 327922 (antisense eT*e[5mC]*eA*eG*eT*eT*eT*eT*eG*e[5mC]*eA*eT*eG*eG*eA*eT*eT*eT*eG*e[5mC]*eA*e[5mC]*eA) [compound 327922] |  |  |  | 77 % UTC | 76 % UTC | 109 % UTC | 104 % UTC | 57 % UTC | 61 % UTC |  |
| 327876 (antisense eA*eA*e[5mC]*eA*e[5mC]*eT*eG*eA*eT*eT*eT*e[5mC]*eA*eA*eA*eT*eG*eG*eT*eG*e[5mC]*eT*eA) [compound 327876] |  |  |  | 119 % UTC | 176 % UTC | 93 % UTC | 118 % UTC | 104 % UTC | 138 % UTC |  |
| 327903 (antisense eA*eA*e[5mC]*eT*eA*eT*eA*e[5mC]*eA*eA*e[5mC]*e[5mC]*eT*eA*e[5mC]*eT*eA*e[5mC]*e[5mC]*eT*e[5mC]*eA) [compound 327903] |  |  |  | 71 % UTC | 87 % UTC | 71 % UTC | 81 % UTC | 60 % UTC | 89 % UTC |  |
| 328685 (e[5mC]*eG*eG*e[5mC]*e[5mC]*dG*dG*dA*dG*d[5mC]*d[5mC]*dA*dT*dA*dG*eA*e[5mC]*eT*e[5mC]*eG; antisense) [compound 328685] |  |  |  |  |  |  |  |  |  | PEPCK-c (% UTC) (PEPCK-c; [4]): 219 % UTC; PEPCK-c (% UTC) (PEPCK-c; [5]): 184 % UTC; IGFBP-1 (% UTC) (IGFBP-1; [4]): 157 % UTC; IGFBP-1 (% UTC) (IGFBP-1; [5]): 143 % UTC; Follistatin (% UTC) (follistatin; [4]): 100 % UTC; Follistatin (% UTC) (follistatin; [5]): 157 % UTC |
| 327901 (antisense eT*eG*eA*eG*e[5mC]*eT*eA*e[5mC]*eA*eG*eT*eG*e[5mC]*eT*eT*e[5mC]*eA*eT*e[5mC]*eT*e[5mC]*eA) [compound 327901] |  |  |  | 119 % UTC | 117 % UTC | 133 % UTC | 135 % UTC | 93 % UTC | 135 % UTC |  |
| 341803 (antisense CCACACACTTCCTTACATTCCA; all 2'-MOE, all phosphorothioate, methylation of C not given here) [compound 341803] | 110 | 107 | 68 |  |  |  |  |  |  |  |
| 341807 (antisense CTGGGACTTTGTAGGCCAGTT; all 2'-MOE, all phosphorothioate, methylation of C not given here) [compound 341807] | 97 | 129 | 102 |  |  |  |  |  |  |  |
| 327880 (antisense eA*e[5mC]*eA*eA*eA*eT*eT*e[5mC]*eG*eG*eT*eT*e[5mC]*eT*eA*e[5mC]*eA*eG*eG*eG*eT*eA) [compound 327880] |  |  |  | 110 % UTC | 125 % UTC | 137 % UTC | 136 % UTC | 107 % UTC | 149 % UTC |  |
| 340927 (antisense eT*eG*eA*eG*e[5mC]*dT*dA*d[5mC]*dA*dG*dT*dG*d[5mC]*dT*dT*e[5mC]*eA*eT*e[5mC]*eT*e[5mC]*eA) [compound 340927] |  |  |  | 87 % UTC | 103 % UTC | 201 % UTC | 285 % UTC | 111 % UTC | 128 % UTC |  |
| 327933 (antisense eA*eA*eG*eG*eG*eA*eT*eT*e[5mC]*e[5mC]*eT*eG*eG*eG*eA*eA*eA*eA*e[5mC]*eT*eG*eG*eA*e[5mC]) [compound 327933] |  |  |  | 118 % UTC | 115 % UTC | 125 % UTC | 179 % UTC | 112 % UTC | 185 % UTC |  |
| 327918 (antisense e[5mC]*eT*eA*eG*eT*eA*e[5mC]*eA*eT*e[5mC]*eA*eT*e[5mC]*eT*eA*eT*eA*e[5mC]*eT*eG*eT*eA) [compound 327918] | 81 | 95 | 75 |  |  |  |  |  |  | PEPCKc mRNA expression (PEPCK-c): 107; IGFBP1 mRNA expression (IGFBP-1): 81; Follistatin mRNA expression (follistatin): 76 |
| 327941 (antisense eA*eA*e[5mC]*e[5mC]*e[5mC]*eA*e[5mC]*e[5mC]*eG*eA*e[5mC]*eA*eG*e[5mC]*eA*eA*eT*eG*eA*eA*eT*eG*eT*eT) [compound 327941] |  |  |  | 101 % UTC | 98 % UTC | 83 % UTC | 80 % UTC | 80 % UTC | 68 % UTC |  |
| 341800 (antisense AAGCCCAAAAGGAGAAUUCUUUG; all 2'-MOE, all phosphorothioate, methylation of C and T or U not given here) [compound 341800] | 71 | 114 | 105 |  |  |  |  |  |  |  |
| 327913 (antisense eA*eA*e[5mC]*e[5mC]*eG*eA*eT*eT*eT*e[5mC]*eA*eA*eA*eT*eG*eG*eT*eG*e[5mC]*eT*eA*eG) [compound 327913] |  |  |  | 229 % UTC | 268 % UTC | 123 % UTC | 147 % UTC | 115 % UTC | 123 % UTC |  |
| 327923 (antisense eG*eA*eA*eA*eG*eA*eG*eA*e[5mC]*e[5mC]*eG*eG*eT*eT*e[5mC]*eA*e[5mC]*eT*eG*eT*eG*eA) [compound 327923] | 83 | 116 | 86 |  |  |  |  |  |  | PEPCKc mRNA expression (PEPCK-c): 125; IGFBP1 mRNA expression (IGFBP-1): 119; Follistatin mRNA expression (follistatin): 106 |
| 327916 (antisense eT*eG*eG*e[5mC]*eA*eT*eT*e[5mC]*eA*e[5mC]*e[5mC]*eG*e[5mC]*eG*eT*eG*e[5mC]*e[5mC]*eT*eT*eA*eA) [compound 327916] | 88 | 102 | 108 |  |  |  |  |  |  | PEPCKc mRNA expression (PEPCK-c): 88; IGFBP1 mRNA expression (IGFBP-1): 128; Follistatin mRNA expression (follistatin): 98 |
